Measurements from PMC7115508 (European Journal of Medicinal Chemistry, 2011).

test system: HCV RNA replication in HCV replicon cell (Huh-7 carrying the subgenomic HCV genotype 1 replicon); settings: read-out: Antiviral Activity HCV (EC50); cited from earlier work

Compound	EC50
N#Cc1cccc(COc2cc(O)c3c(=O)c(O)c(-c4ccccc4)oc3c2)c1 [compound 4, reference compound]	3 µM
O=c1c(OCc2cccc([N+](=O)[O-])c2)c(-c2ccccc2)oc2cc(O)cc(O)c12 [compound 3, reference compound]	5 µM

test system: normal human fibroblast cell HS27; settings: not given

Compound	Cytotoxicity: concentration required to reduce proliferation of normal human fibroblast cell HS27 by 50%
O=c1cc(OCc2ccc(Cl)cc2)oc2ccc(OCc3cccc(Cl)c3)c(O)c12 [5c, 6-(3-chloro-benzyloxy)-2-(4-chloro-benzyloxy)-5-hydroxy-chromen-4-one]	>50 µM
N#Cc1cccc(COc2cc(=O)c3c(O)c(OCc4cccc(Cl)c4)ccc3o2)c1 [5g, 3-[6-(3-chloro-benzyloxy)-5-hydroxy-4-oxo-4H-chromen-2-yloxymethyl]-benzonitrile]	>50 µM
O=c1cc(OCc2cccc(Cl)c2)oc2ccc(OCc3cccc(Cl)c3)c(O)c12 [5b, 2,6-bis-(3-chloro-benzyloxy)-5-hydroxy-chromen-4-one]	>50 µM
N#Cc1cccc(COc2cc(O)c3c(=O)c(O)c(-c4ccccc4)oc3c2)c1 [compound 4, reference compound]	>50 µM
O=c1c(OCc2cccc([N+](=O)[O-])c2)c(-c2ccccc2)oc2cc(O)cc(O)c12 [compound 3, reference compound]	>50 µM
O=C(O)/C(O)=C/C(=O)c1cccc(NCc2ccc(Cl)cc2)c1 [compound 1, reference compound]	>50 µM
O=c1cc(OCc2cccc(I)c2)oc2ccc(OCc3cccc(Cl)c3)c(O)c12 [5e, 6-(3-chloro-benzyloxy)-5-hydroxy-2-(3-iodo-benzyloxy)-chromen-4-one]	>50 µM
O=c1cc(OCc2ccc(I)cc2)oc2ccc(OCc3cccc(Cl)c3)c(O)c12 [5f, 6-(3-chloro-benzyloxy)-5-hydroxy-2-(4-iodo-benzyloxy)-chromen-4-one]	>50 µM
O=c1cc(OCc2cc(Cl)cc(Cl)c2)oc2ccc(OCc3cccc(Cl)c3)c(O)c12 [5d, 6-(3-chloro-benzyloxy)-2-(3,5-dichloro-benzyloxy)-5-hydroxy-chromen-4-one]	>50 µM
O=c1cc(OCc2ccccc2)oc2ccc(OCc3cccc(Cl)c3)c(O)c12 [5a, 2-benzyloxy-6-(3-chloro-benzyloxy)-5-hydroxy-chromen-4-one]	>50 µM
